According to PMC8622152, “Expression Profile and Ligand Screening of a Putative Odorant-Binding Protein, AcerOBP6, from the Asian Honeybee” (Insects, 2021):
Entries after “also recorded” stand apart in the source; their conditions may differ. Where two headings read alike, the source gives them in different places.

Assays:
[1] = biological target: AcerOBP6 (Apis cerana cerana, UniProt A0A2A3ES84); type: binding; conditions: for Ki: Ki = [IC50]/(1 + [1-NPN]/K1-NPN), read-out: Ki (dissociation constant); for Ki / IC50: AcerOBP6 1 µM, 1-NPN 1 µM; for IC50: concentration of ligand displacing 50% 1-NPN, ligand 1-10 µM, short dash: not possible to calculate the IC50 value; for binding affinity with AcerOBP6 (in words): competitive binding with 1-NPN, ligand up to 10 µM
Experimental: Afterwards, the fluorescent probe N-phenyl-1-naphthylamine (1–NPN) was dissolved in methanol to yield a 1 mM stock solution. […] The binding constant of 1-NPN to AcerOBP6 (K1–NPN) was calculated using Scatchard plots of the binding data in GraphPad Prism 8.0.
Taking 1–NPN as the fluorescent reporter, we measured the binding affinity of each odorant by competitive binding assays using. All the 33 ligands (listed in Table S2) were dissolved in spectrally pure grade methanol. We titrated the odorants in a solution containing AcerOBP6 protein (1 μM) and 1–NPN (1 μM) to the final concentrations of 1–10 μM, respectively.

[2] = tested on: antennae of forager bees; test: EAG assay based on RNAi (dsOBP6 feeding); set-up: species or system Apis cerana cerana; conditions: for change of EAG response in dsOBP6 group versus controls: 48 h after feeding dsOBP6-2 dsRNA, p < 0.05
Experimental: The plasmid extracted in Section 2.3 was used as a template to generate 2 dsRNA fragments of AcerOBP6. Meanwhile, dsRNA was synthesized using a T7 RiboMAX™ Express RNAi System (Promega, Madison, WI, USA); the primers used for dsRNA generating are listed in Table S1. The final concentration of dsRNA generation was diluted to 2.5 μg/μL. The concentration and integrity of dsRNA were determined using NanoDrop and agarose gel electrophoresis (1%). Forager bees were collected and fed with AcerOBP6 dsRNA (8 μg for each bee), and then maintained in an artificial climate incubator (65–75% RH; 28 ± 0.4 °C). At the same time, the GFP dsRNA and 30% sugar were employed as the control groups. Each experiment group included 30 bees, and 3 biological repeats were performed. At times of 24, 48, and 96 h after feeding, the RNAi effects were verified by qRT-PCR.
The antennae of forager bees were dissected from the bottom and immediately fixed to both sides of a two-pronged electrode using Spectra 360 electrode gel (Parker Laboratories Inc., Fairfield, NJ, USA). The odorants were dissolved in liquid paraffin to final concentrations of 300 μg/μL, and liquid paraffin was adopted as a blank control. A filter paper strip (3 cm × 1cm) filled with 10 μL tested solution was prepared and put into the tube of Pasteur Pipette, which was connected with the gas feeder equipment. The stimulation time of each odor was 0.5 s and the interval was 30 s. Three technical repetitions were carried out, and ten antennae of female adults were tested for each compound. Finally, the EAGPro software (Syntech) was used to analyze the EAG response recordings.

Chain of AcerOBP6 (A0A2A3ES84 entry or part of it): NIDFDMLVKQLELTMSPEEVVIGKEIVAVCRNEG

Molecule | IC50 [1] | change of EAG response in dsOBP6 group versus controls [2] | binding affinity with AcerOBP6 (in words) [1] | further results
CCOC(=O)/C=C/c1ccccc1 [Ethyl-trans-cinnamate] | 3.93 µM |  |  | Ki ([1]; listed as ethyl-trans-cinnamate): 3.7 µM; Ki [1]: 3.74 µM
C=CC(C)(O)CCC=C(C)C (centres unmarked) [Linalool] |  | significantly decreased |  | 
CCCCCCOC(C)=O [hexyl acetate] |  | significantly decreased |  | 
-Ionone | 5.45 µM |  |  | Ki [1]: 5.18 µM
C=CC(=C)CCC=C(C)C [Myrcene] |  | significantly decreased |  | 
CC/C=C\C/C=C\C/C=C\CCCCCCCC(=O)OCC [α-ethyl linolenic] | > 10 µM |  | could not bind or had a weak binding affinity | 
CCCCCCCCCO [1-Nonanol] |  | significantly decreased |  | 
CC(=O)OCCC(C)C [Isoamyl acetate] |  |  | could not bind or had a weak binding affinity | 
CCCCCCCC/C=C\CCCCCCCC(=O)OC [Methyl oleate] |  |  | could not bind or had a weak binding affinity | 
CC/C=C\C/C=C\C/C=C\CCCCCCCC(=O)OC [Methyl linolenate] |  |  | could not bind or had a weak binding affinity | 
C=C/C(C)=C/CC=C(C)C [β-ocimene] | 5.54 µM | significantly decreased |  | Ki [1]: 5.27 µM
CCCCCCCC/C=C\CCCCCCCC(=O)OCC [Ethyl oleate] |  |  | could not bind or had a weak binding affinity | 
CC12CCC(CC1)C(C)(C)O2 [Eucalyptol] |  | significantly decreased |  | 
CCCCCC(C)=O [2-Heptanone] |  | significantly decreased; also recorded: significant change |  | EAG response of worker bee antennae ([2]; odorant 300 µg/µL in liquid paraffin, 10 µL on filter paper, 0.5 s stimulation): strongest response; also recorded: strong EAG responses
(+) -Cinene | 5.53 µM | significantly decreased |  | Ki [1]: 5.26 µM
C/C1=C\CC/C(C)=C/CC(C)(C)/C=C/C1 [α-caryophllene] | > 10 µM |  | could not bind or had a weak binding affinity | 
C=C/C(C)=C/C/C=C(\C)CCC=C(C)C [α-farnesene] | > 10 µM |  | could not bind or had a weak binding affinity | 
CCCCCCCCCCCCCCCC(=O)OC [Methyl palmitate] | > 10 µM |  | could not bind or had a weak binding affinity | 
CCOC(=O)/C=C/c1ccccc1 [Ethyl cinnamate] |  |  | could not bind or had a weak binding affinity | 
CCCCC/C=C\C/C=C\CCCCCCCC(=O)OCC [Ethyl linoleate] |  |  | could not bind or had a weak binding affinity | 
-Pinene | 6.67 µM |  |  | Ki [1]: 6.35 µM
CCCCCCCCCCCCCCCCCC(=O)OC [Methyl stearate] |  |  | could not bind or had a weak binding affinity | 
